# According to ChEMBL document CHEMBL3046596, “Antinociceptive activities of some triazole and pyrazoline moieties-bearing compounds” (Med Chem Res, 2012):
# Experiments:
# [1] = test system: Mus musculus; assay: Toxicity in Mus musculus Swiss albino (mouse) assessed as mortality at 100 mg/kg, ip; format: organism-based; parameters: dose 100 mg/kg, route intraperitoneal; conditions: in vivo
# [2] = test system: Mus musculus; assay: Toxicity in Mus musculus Swiss albino (mouse) assessed as vertical locomotor activity at 100 mg/kg, ip; format: organism-based; parameters: dose 100 mg/kg, route intraperitoneal; conditions: in vivo
# [3] = test system: Mus musculus; assay: Toxicity in Mus musculus Swiss albino (mouse) assessed as horizontal locomotor activity at 100 mg/kg, ip; format: organism-based; parameters: dose 100 mg/kg, route intraperitoneal; conditions: in vivo
# [4] = test system: Mus musculus; assay: Antinociceptive activity against formalin-induced pain in Mus musculus Swiss albino (mouse) assessed as inhibition of licking during second phase (15 to 30 min) at 100 mg/kg, ip administered 30 min before experimental session; format: functional; conditions: route intraperitoneal
# [5] = test system: Mus musculus; assay: Antinociceptive activity against formalin-induced pain in Mus musculus Swiss albino (mouse) assessed as inhibition of licking during first phase (0 to 5 min) at 100 mg/kg, ip administered 30 min before experimental session; format: functional; conditions: route intraperitoneal
# [6] = test system: Mus musculus; assay: Antinociceptive activity in Mus musculus Swiss albino (mouse) assessed as prolongation of reaction latency to mechanical stimuli at 100 mg/kg, ip administered 30 min before experimental session by tail-clip test; format: functional; conditions: route intraperitoneal
# [7] = test system: Mus musculus; assay: Antinociceptive activity in Mus musculus Swiss albino (mouse) assessed as increase in reaction (paw licking and jumping) latency to thermal stimulus at 100 mg/kg, ip administered 30 min before experimental session by hot plate test; format: functional; conditions: route intraperitoneal
# [8] = test system: Mus musculus; assay: Antinociceptive activity in Mus musculus Swiss albino (mouse) assessed as increase in reaction (paw licking and jumping) latency to thermal stimulus at 10 mg/kg, ip administered 30 min before experimental session by hot plate test; format: functional; conditions: route intraperitoneal
# [9] = test system: Mus musculus; assay: Antinociceptive activity in Mus musculus Swiss albino (mouse) assessed as prolongation of reaction latency to mechanical stimuli at 10 mg/kg, ip administered 30 min before experimental session by tail-clip test; format: functional; conditions: route intraperitoneal
# [10] = species on record: Mus musculus; assay: animal or person; conditions: Swiss albino, ip, read-out: INH
# Description: Antinociceptive activity against formalin-induced pain in Mus musculus Swiss albino (mouse) assessed as inhibition of licking during second phase (15 to 30 min) at 10 mg/kg, ip administered 30 min before experimental session
# [11] = species on record: Mus musculus; assay: animal or person; conditions: Swiss albino, ip, read-out: INH; remark: listed apart in the source
# Description: Antinociceptive activity against formalin-induced pain in Mus musculus Swiss albino (mouse) assessed as inhibition of licking during first phase (0 to 5 min) at 10 mg/kg, ip administered 30 min before experimental session
Compound,Activity [1],Activity [2],Activity [3],inhibition in vivo at 100 mg/kg [4],inhibition in vivo at 100 mg/kg [5],MPE [6],Activity [7],Activity [8],MPE [9],inhibition in vivo at 10 mg/kg [10],inhibition in vivo at 10 mg/kg [11]
Nn1c(CCc2ccc(O)cc2)nnc1SCC(=O)N1N=C(c2cccs2)CC1c1ccc2c(c1)OCO2 (stereo unspecified),Non-toxic,Non-toxic,Non-toxic,37.3%,32%,36.2%,45.1%,–,–,–,–
Nn1c(CCc2ccc(O)cc2)nnc1SCC(=O)N1N=C(c2cccs2)CC1c1ccccc1 (stereo unspecified),Non-toxic,Non-toxic,Non-toxic,79.2%,66.6%,80.2%,79.4%,–,–,–,–
Nn1c(CCc2ccc(O)cc2)nnc1SCC(=O)N1N=C(c2cccs2)CC1c1ccc(F)cc1 (stereo unspecified),Non-toxic,Non-toxic,Non-toxic,78.3%,73.7%,85%,89%,–,–,–,–
Nn1c(CCc2ccc(O)cc2)nnc1SCC(=O)N1N=C(c2cccs2)CC1c1ccc(Cl)cc1 (stereo unspecified),Non-toxic,Non-toxic,Non-toxic,72.1%,68.7%,75.3%,81.6%,–,–,–,–
Cc1ccc(C2CC(c3cccs3)=NN2C(=O)CSc2nnc(CCc3ccc(O)cc3)n2N)cc1 (stereo unspecified),Non-toxic,Non-toxic,Non-toxic,42.5%,35.4%,53.5%,50.3%,–,–,–,–
CN(C)c1ccc(C2CC(c3cccs3)=NN2C(=O)CSc2nnc(CCc3ccc(O)cc3)n2N)cc1 (stereo unspecified),Non-toxic,Non-toxic,Non-toxic,38.9%,31.3%,36.5%,38.5%,–,–,–,–
CN1CC[C@]23c4c5ccc(O)c4O[C@H]2[C@@H](O)C=C[C@H]3[C@H]1C5 [MORPHINE],–,–,–,–,–,–,–,92.5%,88.1%,100%,100%
